The values that follow come from patent US20260325533A1, “CDK INHIBITOR COMPOUNDS” (ALEKSIA THERAPEUTICS, INC., priority 2023, published 2026).

Read-outs that look alike come from different tables or passages of the source.

Holding throughout (assay type): biochemical
The target in assay [1] is CDK1/CCNB1 (Homo sapiens, UniProt P06493). The assay can be described thus: CDK1 homogeneous time-resolved fluorescence (HTRF) kinase assay. The conditions noted are these: CDK1/CCNB. A digest of the protocol:
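Kinase activity is measured as Lance signal (665 nm, or 665/615 nm ratio) from europium-labelled anti-phospho-Thr37/46 antibody binding ULight-4E-BP1 peptide. Reactions contain 0.5 nM enzyme, 1 mM ATP, 1% DMSO and run 60 min at 23 °C before EDTA quench.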
(Time-resolved FRET reads energy transfer from a long-lived donor to a nearby acceptor.)

Assay [2] deals with CDK4/CCND3 (Homo sapiens, UniProt P11802). The assay can be described thus: CDK4 homogeneous time-resolved fluorescence (HTRF) kinase assay. The conditions noted are these: CDK4/CCND. In a few lines:
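HTRF kinase assay, CDK4/CCND3 1.5 nM, ATP 1 mM, ULight-4E-BP1 peptide 50 nM, 23 °C, 60 min reaction after 20 min preincubation. Eu-anti-pThr37/46 antibody detection. 11-pt half-log curves from 10 μM → IC50.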

Assay [3] addresses CDK2/CCNE1 (Homo sapiens, UniProt P24941). The assay can be described thus: CDK2 homogeneous time-resolved fluorescence (HTRF) kinase assay. The conditions noted are these: CDK2/CCNE. In a few lines:
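TR-FRET read-out (665 nm, or 665/615 ratio) of Eu-antibody detection of phospho-4E-BP1 (Thr37/46) ULight peptide. Enzyme 3 nM, ATP 1 mM, peptide 50 nM, 1% DMSO; 60 min reaction at 23 °C after 20 min compound preincubation. IC50 from 11-point half-log titrations, top typically 10 μM.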

The target in assay [4] is CDK6/CCND1 (Homo sapiens, UniProt Q00534). The assay can be described thus: CDK6 homogeneous time-resolved fluorescence (HTRF) kinase assay. The conditions noted are these: CDK6/CCND. A digest of the protocol: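 Recombinant CDK6/CCND1 (1 nM final) was preincubated with compound for 20 min at 23 °C in HEPES buffer with MgCl2, EGTA, DTT and Tween 20. Kinase reaction then ran 60 min at 23 °C with 1 mM ATP and 50 nM ULight-4E-BP1 (Thr37/46) peptide, and was stopped with EDTA.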

[5] abbreviates: >250 nM, read-out: CDK1/CCNB IC50 >250 nM.
Where [6] appears, read: >250 nM, 1 mM ATP, read-out: CDK6/CCND IC50, >250 nM.
The mark [7] stands for this setting: 25-250 nM, read-out: CDK4/CCND IC50, 25-250 nM.
[8] abbreviates: <25 nM, read-out: CDK2/CCNE IC50, <25 nM.
Setting [9] is: 25-250 nM, read-out: CDK1/CCNB IC50, 25-250 nM.
Where [10] appears, read: 25-250 nM, 1 mM ATP, read-out: CDK6/CCND IC50, 25-250 nM.
Setting [11] is: x = IC50 25-250 nM, read-out: CDK1/CCNB IC50 (25-250 nM).
Where [12] appears, read: x = IC50 25-250 nM, read-out: CDK4/CCND IC50 (25-250 nM).
Setting [13] is: x = IC50 <25 nM, read-out: CDK2/CCNE IC50 (<25 nM).
The mark [14] stands for this setting: x = IC50 25-250 nM, read-out: CDK6/CCND IC50 (25-250 nM).
[15] abbreviates: x = IC50 >250 nM, read-out: CDK4/CCND IC50 (>250 nM column).
The mark [16] stands for this setting: x = IC50 >250 nM, read-out: CDK6/CCND IC50 (>250 nM column).
The mark [17] stands for this setting: x = IC50 >250 nM, read-out: CDK1/CCNB IC50 (>250 nM column).
[18] abbreviates: 25-250 nM marked x, read-out: CDK1/CCNB IC50 25-250 nM.
Setting [19] is: <25 nM, read-out: CDK2/CCNE IC50 <25 nM.
Where [20] appears, read: >250 nM marked x, read-out: CDK6/CCND IC50 >250 nM.
Where [21] appears, read: >250 nM marked x, read-out: CDK1/CCNB IC50 >250 nM.
Setting [22] is: >250 nM marked x, read-out: CDK4/CCND IC50 >250 nM.

Chain of CDK1/CCNB1 (P06493 whole entry): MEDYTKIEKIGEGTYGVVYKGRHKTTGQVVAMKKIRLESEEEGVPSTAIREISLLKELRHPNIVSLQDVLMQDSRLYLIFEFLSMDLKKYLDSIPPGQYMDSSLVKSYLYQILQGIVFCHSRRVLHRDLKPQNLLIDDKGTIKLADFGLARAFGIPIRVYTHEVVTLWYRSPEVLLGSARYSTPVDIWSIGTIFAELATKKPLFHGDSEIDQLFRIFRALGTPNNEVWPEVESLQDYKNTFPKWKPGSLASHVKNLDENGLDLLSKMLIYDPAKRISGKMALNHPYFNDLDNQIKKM
Chain of CDK1/CCNB1 (P14635 whole entry partner): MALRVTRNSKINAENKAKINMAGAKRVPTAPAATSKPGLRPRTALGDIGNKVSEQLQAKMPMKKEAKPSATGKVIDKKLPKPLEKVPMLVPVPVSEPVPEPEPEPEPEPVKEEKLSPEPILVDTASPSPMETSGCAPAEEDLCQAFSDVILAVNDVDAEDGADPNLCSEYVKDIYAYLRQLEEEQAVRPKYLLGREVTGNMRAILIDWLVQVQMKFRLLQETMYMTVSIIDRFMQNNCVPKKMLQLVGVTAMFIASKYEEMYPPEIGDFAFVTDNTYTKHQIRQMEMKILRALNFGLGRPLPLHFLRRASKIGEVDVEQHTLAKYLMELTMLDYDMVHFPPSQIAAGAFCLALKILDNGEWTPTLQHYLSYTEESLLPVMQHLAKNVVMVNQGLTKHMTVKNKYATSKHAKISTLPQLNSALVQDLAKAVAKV
Chain of CDK6/CCND1 (Q00534 whole entry): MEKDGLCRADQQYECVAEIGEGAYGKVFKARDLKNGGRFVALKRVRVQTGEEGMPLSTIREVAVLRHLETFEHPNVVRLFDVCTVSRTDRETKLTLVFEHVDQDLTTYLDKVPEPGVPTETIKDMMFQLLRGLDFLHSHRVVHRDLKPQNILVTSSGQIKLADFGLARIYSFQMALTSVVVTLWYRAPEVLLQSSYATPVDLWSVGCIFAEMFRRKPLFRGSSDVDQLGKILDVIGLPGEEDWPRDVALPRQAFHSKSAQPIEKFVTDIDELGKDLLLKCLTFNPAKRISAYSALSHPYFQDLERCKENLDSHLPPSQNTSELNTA
Chain of CDK6/CCND1 (P24385 whole entry partner): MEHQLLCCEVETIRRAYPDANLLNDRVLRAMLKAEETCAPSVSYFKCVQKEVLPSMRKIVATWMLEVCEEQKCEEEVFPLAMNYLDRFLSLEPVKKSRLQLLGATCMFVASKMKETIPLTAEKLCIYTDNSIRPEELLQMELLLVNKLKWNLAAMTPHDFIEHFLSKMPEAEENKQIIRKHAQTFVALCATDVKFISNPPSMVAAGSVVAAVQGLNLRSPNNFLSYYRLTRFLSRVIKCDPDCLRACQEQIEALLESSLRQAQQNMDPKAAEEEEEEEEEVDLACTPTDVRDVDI
Chain of CDK4/CCND3 (P11802 whole entry): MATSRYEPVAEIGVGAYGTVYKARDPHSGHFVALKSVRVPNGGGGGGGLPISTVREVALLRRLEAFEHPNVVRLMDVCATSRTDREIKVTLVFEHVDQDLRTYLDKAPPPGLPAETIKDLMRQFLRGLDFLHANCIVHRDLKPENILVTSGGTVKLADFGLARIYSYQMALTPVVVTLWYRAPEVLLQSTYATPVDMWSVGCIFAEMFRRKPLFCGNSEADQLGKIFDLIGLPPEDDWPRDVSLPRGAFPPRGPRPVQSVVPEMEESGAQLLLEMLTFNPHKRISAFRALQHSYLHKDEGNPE
Chain of CDK4/CCND3 (P30281 whole entry partner): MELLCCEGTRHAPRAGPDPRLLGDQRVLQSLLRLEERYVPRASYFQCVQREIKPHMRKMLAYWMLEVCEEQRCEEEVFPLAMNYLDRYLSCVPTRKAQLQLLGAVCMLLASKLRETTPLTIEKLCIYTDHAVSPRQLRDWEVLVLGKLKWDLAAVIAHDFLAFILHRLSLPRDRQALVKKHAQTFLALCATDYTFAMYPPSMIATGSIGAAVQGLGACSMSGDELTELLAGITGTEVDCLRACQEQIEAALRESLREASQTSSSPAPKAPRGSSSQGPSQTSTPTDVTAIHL

With `Cc1c(-c2nccc3cnc(NC4CCCN(S(C)(=O)=O)C4)cc23)ccc2c1cnn2CC(C)(C)O` (racemic) [Ex 918, 2-methyl-1-(4-methyl-5-(7-((1-(methylsulfonyl)piperidin-3-yl)amino)-2,6-naphthyridin-1-yl)-1H-indazol-1-yl)propan-2-ol], the IC50 in assay [1] (setting [5]) is greater than 0.25 µM; in assay [2] (>250 nM, read-out: CDK4/CCND IC50, >250 nM) it was greater than 0.25 µM; in assay [3] (25-250 nM, read-out: CDK2/CCNE IC50, 25-250 nM) it was 0.025 to 0.25 µM; in assay [4] (setting [6]) it was greater than 0.25 µM.

As for `CS(=O)(=O)c1ccc(Nc2cc3c(C#CC45CCC(Cl)(CC4)CC5)nccc3cn2)cc1` (racemic) [Ex 944, 5-((4-chlorobicyclo[2.2.2]octan-1-yl)ethynyl)-N-(4-(methylsulfonyl)phenyl)-2,6-naphthyridin-3-amine], the IC50 in assay [1] (setting [5]) was greater than 0.25 µM; in assay [2] (setting [7]) it was 0.025 to 0.25 µM; in assay [3] (setting [8]), less than 0.025 µM; in assay [4] (setting [6]), greater than 0.25 µM.

For `CS(=O)(=O)c1ccc(Nc2cc3c(C#CC45CC(C(N)=O)(C4)C5)nccc3cn2)cc1` (racemic) [Ex 945, 3-((7-((4-(methylsulfonyl)phenyl)amino)-2,6-naphthyridin-1-yl)ethynyl)bicyclo[1.1.1]pentane-1-carboxamide], the IC50 in assay [1] (setting [9]) is 0.025 to 0.25 µM; in assay [2] (setting [7]) it was 0.025 to 0.25 µM; in assay [3] (setting [8]), less than 0.025 µM; in assay [4] (setting [10]) it was 0.025 to 0.25 µM.

For `CS(=O)(=O)c1ccc(Nc2cc3c(C#CC45CCC(C#N)(CC4)CC5)nccc3cn2)cc1` (racemic) [Ex 946, 4-((7-((4-(methylsulfonyl)phenyl)amino)-2,6-naphthyridin-1-yl)ethynyl)bicyclo[2.2.2]octane-1-carbonitrile], the IC50 in assay [1] (setting [9]) is 0.025 to 0.25 µM; in assay [2] (setting [7]), 0.025 to 0.25 µM; in assay [3] (setting [8]) it was less than 0.025 µM; in assay [4] (setting [10]), 0.025 to 0.25 µM.

Take `CC1(O)C(=O)Nc2cc(C#Cc3nccc4cnc(Nc5ccc(S(C)(=O)=O)cc5)cc34)ccc21` (racemic) [Example 362, 3-hydroxy-3-methyl-6-((7-((4-(methylsulfonyl)phenyl)amino)-2,6-naphthyridin-1-yl)ethynyl)indolin-2-one]: the IC50 was 0.025 to 0.25 µM in assay [1] (setting [11]), 0.025 to 0.25 µM in assay [2] (setting [12]), less than 0.025 µM in assay [3] (setting [13]) and 0.025 to 0.25 µM in assay [4] (setting [14]).

In the case of `CCC1(C)C(=O)Nc2cc(C#Cc3nccc4cnc(Nc5ccc(S(C)(=O)=O)cc5)cc34)ccc21` (racemic) [Example 390, 3-ethyl-3-methyl-6-((7-((4-(methylsulfonyl)phenyl)amino)-2,6-naphthyridin-1-yl)ethynyl)indolin-2-one], the IC50 is 0.025 to 0.25 µM in assay [1] (setting [11]), greater than 0.25 µM in assay [2] (setting [15]), less than 0.025 µM in assay [3] (setting [13]) and greater than 0.25 µM in assay [4] (setting [16]).

Consider `CC1(CO)C(=O)Nc2cc(C#Cc3nccc4cnc(Nc5ccc(S(C)(=O)=O)cc5)cc34)ccc21` (racemic) [Example 391, 3-(hydroxymethyl)-3-methyl-6-((7-((4-(methylsulfonyl)phenyl)amino)-2,6-naphthyridin-1-yl)ethynyl)indolin-2-one], for which the IC50 in assay [1] (setting [11]) is 0.025 to 0.25 µM; in assay [2] (setting [12]) it was 0.025 to 0.25 µM; in assay [3] (setting [13]), less than 0.025 µM; in assay [4] (setting [16]), greater than 0.25 µM.

For the molecule `CC(C)S(=N)(=O)c1ccc(Nc2cc3c(C#Cc4ccc(=O)[nH]n4)nccc3cn2)cc1` (racemic) [Example 431, 6-((7-((4-(propan-2-ylsulfonimidoyl)phenyl)amino)-2,6-naphthyridin-1-yl)ethynyl)pyridazin-3(2H)-one], the IC50 in assay [1] (setting [17]) is greater than 0.25 µM; in assay [2] (setting [15]), greater than 0.25 µM; in assay [3] (setting [13]), less than 0.025 µM; in assay [4] (setting [16]) it was greater than 0.25 µM.

For the molecule `Cc1c(-c2nccc3cnc(Nc4ccc(S(C)(=N)=O)cc4)cc23)ccc2nn(C)cc12` (racemic) [Example 626, (4-((5-(2,4-dimethyl-2H-indazol-5-yl)-2,6-naphthyridin-3-yl)amino)phenyl)(imino)(methyl)-λ^6-sulfanone], the IC50 in assay [1] (setting [17]) is greater than 0.25 µM; in assay [2] (setting [15]), greater than 0.25 µM; in assay [3] (setting [13]), less than 0.025 µM; in assay [4] (setting [16]), greater than 0.25 µM.

Turning to `CC1(O)C=C(c2nccc3cnc(Nc4ccc(S(C)(=O)=O)cc4)cc23)CCC1` (racemic) [Example 671, 1-methyl-3-(7-((4-(methylsulfonyl)phenyl)amino)-2,6-naphthyridin-1-yl)cyclohex-2-en-1-ol], the IC50 was greater than 0.25 µM in assay [1] (setting [17]), greater than 0.25 µM in assay [2] (setting [15]), less than 0.025 µM in assay [3] (setting [13]) and 0.025 to 0.25 µM in assay [4] (setting [14]).

With `CS(=O)(=O)c1ccc(Nc2cc3c(N4CC[C@H](c5ccc(C#N)cc5)[C@H](O)C4)nccc3cn2)cc1` (relative stereo) [Example 606, 4-(3-hydroxy-1-(7-((4-(methylsulfonyl)phenyl)amino)-2,6-naphthyridin-1-yl)piperidin-4-yl)benzonitrile], the IC50 in assay [1] (setting [17]) is greater than 0.25 µM; in assay [2] (setting [15]), greater than 0.25 µM; in assay [3] (x = IC50 25-250 nM, read-out: CDK2/CCNE IC50 (25-250 nM)), 0.025 to 0.25 µM; in assay [4] (setting [16]) it was greater than 0.25 µM.

As for `CS(=O)(=O)N1CCC(Nc2cc3c(N4CCC(C#N)C4)nccc3cn2)CC1` (single isomer, unassigned) [Ex 115, 1-(7-((1-(methylsulfonyl)piperidin-4-yl)amino)-2,6-naphthyridin-1-yl)pyrrolidine-3-carbonitrile], the IC50 was 0.025 to 0.25 µM in assay [1] (setting [18]); less than 0.025 µM in assay [2] (<25 nM, read-out: CDK4/CCND IC50 <25 nM); less than 0.025 µM in assay [3] (setting [19]); less than 0.025 µM in assay [4] (<25 nM, read-out: CDK6/CCND IC50 <25 nM).

As to `Cc1cc(S(=N)(=O)C2COC2)ccc1Nc1cc2c(C#Cc3ccc4c(c3)NC(=O)C43CC3)nccc2cn1` (single isomer, unassigned) [Ex 268, 6'-((7-((2-methyl-4-(oxetane-3-sulfonimidoyl)phenyl)amino)-2,6-naphthyridin-1-yl)ethynyl)spiro[cyclopropane-1,3'-indolin]-2'-one], the IC50 was 0.025 to 0.25 µM in assay [1] (setting [18]); 0.025 to 0.25 µM in assay [2] (25-250 nM marked x, read-out: CDK4/CCND IC50 25-250 nM); less than 0.025 µM in assay [3] (setting [19]); greater than 0.25 µM in assay [4] (setting [20]).

`CCC1(CC)C(=O)Nc2cc(C#Cc3nccc4cnc(Nc5ccc(S(=N)(=O)C6CCC6)cc5OC)cc34)ccc21` (single isomer, unassigned) [Ex 269, 6-((7-((4-(cyclobutanesulfonimidoyl)-2-methoxyphenyl)amino)-2,6-naphthyridin-1-yl)ethynyl)-3,3-diethylindolin-2-one]: the IC50 in assay [1] (setting [21]) was greater than 0.25 µM; in assay [2] (setting [22]) it was greater than 0.25 µM; in assay [3] (setting [19]), less than 0.025 µM; in assay [4] (setting [20]), greater than 0.25 µM.

As to `CCC1(CC)C(=O)Nc2cc(C#Cc3nccc4cnc(Nc5ccc(S(=N)(=O)C6COC6)cc5F)cc34)ccc21` (single isomer, unassigned) [Ex 273, 3,3-diethyl-6-((7-((2-fluoro-4-(oxetane-3-sulfonimidoyl)phenyl)amino)-2,6-naphthyridin-1-yl)ethynyl)indolin-2-one], the IC50 in assay [1] (setting [21]) is greater than 0.25 µM; in assay [2] (setting [22]), greater than 0.25 µM; in assay [3] (setting [19]), less than 0.025 µM; in assay [4] (setting [20]) it was greater than 0.25 µM.
